Measurements published in the supplement of paper PMC11616607.

Tested on: Ovsaho
Experiment: drug sensitivity score (DSS) from 5-point dose-response viability curve (DSS (area-under-curve based score)); higher = more sensitive (stronger growth inhibition or killing); extreme values may be limits of the assay
Conditions: exposure time: 72 h; concentration range: 5 concentrations over 10,000-fold range
How it was run: (§1)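 Drug sensitivity scores were calculated in Breeze software for each cell line and drug pair; higher scores indicate more sensitivity. A score of zero indicates no response. The underlying assay used 384-well plates: drugs were placed by an Echo 550 acoustic dispenser at five concentrations spanning a 10,000-fold range, 1,500 ovarian cancer or normal ovarian cells were added per well, and cells were kept 3 days at 37°C, 5% CO2. Viability was then measured with CellTiter-Glo luminescence on a PHERAstar FS.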

Compound	drug sensitivity score
Cc1ccc(NC(=O)c2ccc(CN3CCN(C)CC3)cc2)cc1Nc1nccc(-c2cccnc2)n1 [Imatinib]	0
CC[C@H](CO)Nc1nc(NCc2ccccc2)c2ncn(C(C)C)c2n1 [Seliciclib]	0.1

Tested on: Kuramochi
Experiment: as above
Conditions: exposure time: 72 h; concentration range: 5 concentrations over 10,000-fold range
How it was run: as §1

Compound	drug sensitivity score
CC(C)(C)c1cc(NC(=O)Nc2ccc(Oc3ccnc4[nH]c(=O)cnc34)cc2F)n(-c2ccccc2)n1	2.3
CCn1c(-c2nonc2N)nc2c(C#CC(C)(C)O)ncc(OC[C@H]3CCCNC3)c21	2.9
CCn1cc(-c2ccnc3[nH]c(-c4cccc(CN(C)C)c4)cc23)c(-c2ccc(NC(=O)N(C)C)cc2)n1	0.4
CN1CCN(C2CCC(n3cc(-c4ccc(Oc5ccccc5)cc4)c4c(N)ncnc43)CC2)CC1 (centres undefined)	12.6
CNC(=O)c1ccccc1Nc1nc(Nc2ccc3c(c2OC)CCC[C@H](N2CCN(CCO)CC2)C3)ncc1Cl	6.4
CNc1nc(-c2ccc3c(N)n[nH]c3c2)cc(N2C[C@@H](C(=O)NC3CCCCC3)CC[C@H]2C)n1	0.5
CONC(=O)c1ccccc1Nc1cc(Nc2cc(C)nn2C(C)C)ncc1Cl	1.4
COc1cc2ncnc(Oc3cccc(NC(=O)Nc4cc(C(C)(C)C(F)(F)F)on4)c3)c2cc1OC	0.4
COc1ccc2[nH]cc(/C=C3\C(=O)Nc4ccc(NC(=O)CCN5CCCCC5)cc43)c2c1	5.7
C[C@@H](Oc1cc(-n2cnc3ccc(CN4CCN(C)CC4)cc32)sc1C(N)=O)c1ccccc1C(F)(F)F	7.7
O=C(NC[C@H](O)CN1CCc2ccccc2C1)c1cc(NC2COC2)ncn1	0.4
O=C1Cc2cc(C(=O)NC3C[C@H]4CC[C@@H](C3)N4S(=O)(=O)CC3CCN(CCCC(F)(F)F)CC3)c(Cl)cc2N1 (some centres undefined)	0

Tested on: OV90
Experiment: as above
Conditions: exposure time: 72 h; concentration range: 5 concentrations over 10,000-fold range
How it was run: as §1

Compound	drug sensitivity score
CC(C)(C)c1cc(NC(=O)Nc2ccc(Oc3ccnc4[nH]c(=O)cnc34)cc2F)n(-c2ccccc2)n1	12.4
CCn1c(-c2nonc2N)nc2c(C#CC(C)(C)O)ncc(OC[C@H]3CCCNC3)c21	0.6
CCn1cc(-c2ccnc3[nH]c(-c4cccc(CN(C)C)c4)cc23)c(-c2ccc(NC(=O)N(C)C)cc2)n1	0.3
CN1CCN(C2CCC(n3cc(-c4ccc(Oc5ccccc5)cc4)c4c(N)ncnc43)CC2)CC1 (centres undefined)	10.3
CNC(=O)c1ccccc1Nc1nc(Nc2ccc3c(c2OC)CCC[C@H](N2CCN(CCO)CC2)C3)ncc1Cl	8.8
CNc1nc(-c2ccc3c(N)n[nH]c3c2)cc(N2C[C@@H](C(=O)NC3CCCCC3)CC[C@H]2C)n1	0
CONC(=O)c1ccccc1Nc1cc(Nc2cc(C)nn2C(C)C)ncc1Cl	0
COc1cc2ncnc(Oc3cccc(NC(=O)Nc4cc(C(C)(C)C(F)(F)F)on4)c3)c2cc1OC	2.4
COc1ccc2[nH]cc(/C=C3\C(=O)Nc4ccc(NC(=O)CCN5CCCCC5)cc43)c2c1	11.7
C[C@@H](Oc1cc(-n2cnc3ccc(CN4CCN(C)CC4)cc32)sc1C(N)=O)c1ccccc1C(F)(F)F	19.6
O=C(NC[C@H](O)CN1CCc2ccccc2C1)c1cc(NC2COC2)ncn1	0
O=C1Cc2cc(C(=O)NC3C[C@H]4CC[C@@H](C3)N4S(=O)(=O)CC3CCN(CCCC(F)(F)F)CC3)c(Cl)cc2N1 (some centres undefined)	0.6
CCN(CC)CCCC(C)Nc1ccnc2cc(Cl)ccc12 (centres undefined) [Chloroquine]	10
Nc1ccn([C@@H]2O[C@H](CO)[C@@H](O)[C@@H]2O)c(=O)n1 [Cytarabine]	4.4
Cc1ccc(NC(=O)c2ccc(CN3CCN(C)CC3)cc2)cc1Nc1nccc(-c2cccnc2)n1 [Imatinib]	1.5
CC[C@H](CO)Nc1nc(NCc2ccccc2)c2ncn(C(C)C)c2n1 [Seliciclib]	0.3

Tested on: COV362
Experiment: as above
Conditions: exposure time: 72 h; concentration range: 5 concentrations over 10,000-fold range
How it was run: as §1

Compound	drug sensitivity score
CC(C)(C)c1cc(NC(=O)Nc2ccc(Oc3ccnc4[nH]c(=O)cnc34)cc2F)n(-c2ccccc2)n1	0
CCn1c(-c2nonc2N)nc2c(C#CC(C)(C)O)ncc(OC[C@H]3CCCNC3)c21	1.3
CCn1cc(-c2ccnc3[nH]c(-c4cccc(CN(C)C)c4)cc23)c(-c2ccc(NC(=O)N(C)C)cc2)n1	0.2
CN1CCN(C2CCC(n3cc(-c4ccc(Oc5ccccc5)cc4)c4c(N)ncnc43)CC2)CC1 (centres undefined)	11.5
CNC(=O)c1ccccc1Nc1nc(Nc2ccc3c(c2OC)CCC[C@H](N2CCN(CCO)CC2)C3)ncc1Cl	5.4
CNc1nc(-c2ccc3c(N)n[nH]c3c2)cc(N2C[C@@H](C(=O)NC3CCCCC3)CC[C@H]2C)n1	0
CONC(=O)c1ccccc1Nc1cc(Nc2cc(C)nn2C(C)C)ncc1Cl	0.2
COc1cc2ncnc(Oc3cccc(NC(=O)Nc4cc(C(C)(C)C(F)(F)F)on4)c3)c2cc1OC	0
COc1ccc2[nH]cc(/C=C3\C(=O)Nc4ccc(NC(=O)CCN5CCCCC5)cc43)c2c1	8.7
C[C@@H](Oc1cc(-n2cnc3ccc(CN4CCN(C)CC4)cc32)sc1C(N)=O)c1ccccc1C(F)(F)F	3.6
O=C(NC[C@H](O)CN1CCc2ccccc2C1)c1cc(NC2COC2)ncn1	0
O=C1Cc2cc(C(=O)NC3C[C@H]4CC[C@@H](C3)N4S(=O)(=O)CC3CCN(CCCC(F)(F)F)CC3)c(Cl)cc2N1 (some centres undefined)	0
CCN(CC)CCCC(C)Nc1ccnc2cc(Cl)ccc12 (centres undefined) [Chloroquine]	5.5
Nc1ccn([C@@H]2O[C@H](CO)[C@@H](O)[C@@H]2O)c(=O)n1 [Cytarabine]	2.3
Cc1ccc(NC(=O)c2ccc(CN3CCN(C)CC3)cc2)cc1Nc1nccc(-c2cccnc2)n1 [Imatinib]	0.3
CC[C@H](CO)Nc1nc(NCc2ccccc2)c2ncn(C(C)C)c2n1 [Seliciclib]	0

Tested on: OVCAR5
Experiment: as above
Conditions: exposure time: 72 h; concentration range: 5 concentrations over 10,000-fold range
How it was run: as §1

Compound	drug sensitivity score
CC(C)(C)c1cc(NC(=O)Nc2ccc(Oc3ccnc4[nH]c(=O)cnc34)cc2F)n(-c2ccccc2)n1	1.8
CCn1c(-c2nonc2N)nc2c(C#CC(C)(C)O)ncc(OC[C@H]3CCCNC3)c21	0
CCn1cc(-c2ccnc3[nH]c(-c4cccc(CN(C)C)c4)cc23)c(-c2ccc(NC(=O)N(C)C)cc2)n1	2
CN1CCN(C2CCC(n3cc(-c4ccc(Oc5ccccc5)cc4)c4c(N)ncnc43)CC2)CC1 (centres undefined)	15.1
CNC(=O)c1ccccc1Nc1nc(Nc2ccc3c(c2OC)CCC[C@H](N2CCN(CCO)CC2)C3)ncc1Cl	9.1
CNc1nc(-c2ccc3c(N)n[nH]c3c2)cc(N2C[C@@H](C(=O)NC3CCCCC3)CC[C@H]2C)n1	0
CONC(=O)c1ccccc1Nc1cc(Nc2cc(C)nn2C(C)C)ncc1Cl	0.3
COc1cc2ncnc(Oc3cccc(NC(=O)Nc4cc(C(C)(C)C(F)(F)F)on4)c3)c2cc1OC	3
COc1ccc2[nH]cc(/C=C3\C(=O)Nc4ccc(NC(=O)CCN5CCCCC5)cc43)c2c1	9.4
C[C@@H](Oc1cc(-n2cnc3ccc(CN4CCN(C)CC4)cc32)sc1C(N)=O)c1ccccc1C(F)(F)F	19.4
O=C(NC[C@H](O)CN1CCc2ccccc2C1)c1cc(NC2COC2)ncn1	0.8
O=C1Cc2cc(C(=O)NC3C[C@H]4CC[C@@H](C3)N4S(=O)(=O)CC3CCN(CCCC(F)(F)F)CC3)c(Cl)cc2N1 (some centres undefined)	0
CCN(CC)CCCC(C)Nc1ccnc2cc(Cl)ccc12 (centres undefined) [Chloroquine]	8.8
Nc1ccn([C@@H]2O[C@H](CO)[C@@H](O)[C@@H]2O)c(=O)n1 [Cytarabine]	10.6
Cc1ccc(NC(=O)c2ccc(CN3CCN(C)CC3)cc2)cc1Nc1nccc(-c2cccnc2)n1 [Imatinib]	1.3
CC[C@H](CO)Nc1nc(NCc2ccccc2)c2ncn(C(C)C)c2n1 [Seliciclib]	3.4

Tested on: HOSE2C
Experiment: as above
Conditions: exposure time: 72 h; concentration range: 5 concentrations over 10,000-fold range
How it was run: as §1

Compound	drug sensitivity score
CC(C)(C)c1cc(NC(=O)Nc2ccc(Oc3ccnc4[nH]c(=O)cnc34)cc2F)n(-c2ccccc2)n1	12.8
CCn1c(-c2nonc2N)nc2c(C#CC(C)(C)O)ncc(OC[C@H]3CCCNC3)c21	3.7
CCn1cc(-c2ccnc3[nH]c(-c4cccc(CN(C)C)c4)cc23)c(-c2ccc(NC(=O)N(C)C)cc2)n1	1.4
CN1CCN(C2CCC(n3cc(-c4ccc(Oc5ccccc5)cc4)c4c(N)ncnc43)CC2)CC1 (centres undefined)	9.3
CNC(=O)c1ccccc1Nc1nc(Nc2ccc3c(c2OC)CCC[C@H](N2CCN(CCO)CC2)C3)ncc1Cl	8.4
CNc1nc(-c2ccc3c(N)n[nH]c3c2)cc(N2C[C@@H](C(=O)NC3CCCCC3)CC[C@H]2C)n1	2.6
CONC(=O)c1ccccc1Nc1cc(Nc2cc(C)nn2C(C)C)ncc1Cl	0
COc1cc2ncnc(Oc3cccc(NC(=O)Nc4cc(C(C)(C)C(F)(F)F)on4)c3)c2cc1OC	0
COc1ccc2[nH]cc(/C=C3\C(=O)Nc4ccc(NC(=O)CCN5CCCCC5)cc43)c2c1	6.1
C[C@@H](Oc1cc(-n2cnc3ccc(CN4CCN(C)CC4)cc32)sc1C(N)=O)c1ccccc1C(F)(F)F	10.1
O=C(NC[C@H](O)CN1CCc2ccccc2C1)c1cc(NC2COC2)ncn1	0
O=C1Cc2cc(C(=O)NC3C[C@H]4CC[C@@H](C3)N4S(=O)(=O)CC3CCN(CCCC(F)(F)F)CC3)c(Cl)cc2N1 (some centres undefined)	0
CCN(CC)CCCC(C)Nc1ccnc2cc(Cl)ccc12 (centres undefined) [Chloroquine]	7.2
Nc1ccn([C@@H]2O[C@H](CO)[C@@H](O)[C@@H]2O)c(=O)n1 [Cytarabine]	6.6
Cc1ccc(NC(=O)c2ccc(CN3CCN(C)CC3)cc2)cc1Nc1nccc(-c2cccnc2)n1 [Imatinib]	0
CC[C@H](CO)Nc1nc(NCc2ccccc2)c2ncn(C(C)C)c2n1 [Seliciclib]	0

Tested on: OVCAR8
Experiment: as above
Conditions: exposure time: 72 h; concentration range: 5 concentrations over 10,000-fold range
How it was run: as §1

Compound	drug sensitivity score
CC(C)(C)c1cc(NC(=O)Nc2ccc(Oc3ccnc4[nH]c(=O)cnc34)cc2F)n(-c2ccccc2)n1	2
CCn1c(-c2nonc2N)nc2c(C#CC(C)(C)O)ncc(OC[C@H]3CCCNC3)c21	0
CCn1cc(-c2ccnc3[nH]c(-c4cccc(CN(C)C)c4)cc23)c(-c2ccc(NC(=O)N(C)C)cc2)n1	1.9
CN1CCN(C2CCC(n3cc(-c4ccc(Oc5ccccc5)cc4)c4c(N)ncnc43)CC2)CC1 (centres undefined)	9.4
CNC(=O)c1ccccc1Nc1nc(Nc2ccc3c(c2OC)CCC[C@H](N2CCN(CCO)CC2)C3)ncc1Cl	4.9
CNc1nc(-c2ccc3c(N)n[nH]c3c2)cc(N2C[C@@H](C(=O)NC3CCCCC3)CC[C@H]2C)n1	1.2
CONC(=O)c1ccccc1Nc1cc(Nc2cc(C)nn2C(C)C)ncc1Cl	0
COc1cc2ncnc(Oc3cccc(NC(=O)Nc4cc(C(C)(C)C(F)(F)F)on4)c3)c2cc1OC	0
COc1ccc2[nH]cc(/C=C3\C(=O)Nc4ccc(NC(=O)CCN5CCCCC5)cc43)c2c1	8.8
C[C@@H](Oc1cc(-n2cnc3ccc(CN4CCN(C)CC4)cc32)sc1C(N)=O)c1ccccc1C(F)(F)F	29.1
O=C(NC[C@H](O)CN1CCc2ccccc2C1)c1cc(NC2COC2)ncn1	0
O=C1Cc2cc(C(=O)NC3C[C@H]4CC[C@@H](C3)N4S(=O)(=O)CC3CCN(CCCC(F)(F)F)CC3)c(Cl)cc2N1 (some centres undefined)	0
CCN(CC)CCCC(C)Nc1ccnc2cc(Cl)ccc12 (centres undefined) [Chloroquine]	5.8
Nc1ccn([C@@H]2O[C@H](CO)[C@@H](O)[C@@H]2O)c(=O)n1 [Cytarabine]	14.3
Cc1ccc(NC(=O)c2ccc(CN3CCN(C)CC3)cc2)cc1Nc1nccc(-c2cccnc2)n1 [Imatinib]	0.5
CC[C@H](CO)Nc1nc(NCc2ccccc2)c2ncn(C(C)C)c2n1 [Seliciclib]	1.6
